Measurements reported in ChEMBL document CHEMBL1140849, “Selective small molecule inhibitors of the potential breast cancer marker, human arylamine N-acetyltransferase 1, and its murine homologue, mouse arylamine N-acetyltransferase 2” (Bioorg Med Chem, 2009).
pIC50: −log10 of the molar value. Active and inactive are the calls of the source. No cut-off for these calls is given here.

Experiments:
[1] = target: T1, Arylamine N-acetyltransferase 2 (Mus musculus, UniProt P50295); test: Inhibition of mouse recombinant NAT2 assessed as hydrolysis of acetyl coA using PABA as substrate by Ellman's method
T1 sequence (P50295 whole entry): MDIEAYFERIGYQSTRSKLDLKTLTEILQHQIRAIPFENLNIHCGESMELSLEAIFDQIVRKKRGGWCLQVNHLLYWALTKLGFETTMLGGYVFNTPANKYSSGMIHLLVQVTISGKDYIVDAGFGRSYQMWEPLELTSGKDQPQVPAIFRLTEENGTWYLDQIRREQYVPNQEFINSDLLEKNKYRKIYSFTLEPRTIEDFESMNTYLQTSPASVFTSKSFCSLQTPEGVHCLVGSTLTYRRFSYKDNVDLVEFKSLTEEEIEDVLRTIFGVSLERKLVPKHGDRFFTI

[2] = target: T2, Arylamine N-acetyltransferase (Pseudomonas aeruginosa (strain ATCC 15692 / PAO1 / 1C / PRS 101 / LMG12228), UniProt Q9HUY3); details: read-out: INH
T2 sequence (Q9HUY3 whole entry): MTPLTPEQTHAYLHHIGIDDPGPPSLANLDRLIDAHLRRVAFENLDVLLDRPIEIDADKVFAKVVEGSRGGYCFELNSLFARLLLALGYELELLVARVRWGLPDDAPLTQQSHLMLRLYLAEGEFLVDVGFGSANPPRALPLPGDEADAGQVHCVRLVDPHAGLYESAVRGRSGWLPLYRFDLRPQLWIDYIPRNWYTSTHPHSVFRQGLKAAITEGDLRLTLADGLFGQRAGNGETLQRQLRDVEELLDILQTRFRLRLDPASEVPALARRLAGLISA
Description: Inhibition of Pseudomonas aeruginosa recombinant NAT using isoniazid as substrate at 30 uM

Mycobacterium marinum [3] = test: Inhibition of Mycobacterium marinum recombinant NAT using isoniazid as substrate at 30 uM
[4] = Cytotoxicity against mouse macrophage at 10 ug/ml after 72 hrs by trypan blue exclusion method; assay type: cell-based
[5] = target: T3, Arylamine N-acetyltransferase 1 (Homo sapiens, UniProt P18440); test: Inhibition of human recombinant NAT1 assessed as hydrolysis of acetyl coA using PABA as substrate by Ellman's method
T3 sequence (P18440 whole entry): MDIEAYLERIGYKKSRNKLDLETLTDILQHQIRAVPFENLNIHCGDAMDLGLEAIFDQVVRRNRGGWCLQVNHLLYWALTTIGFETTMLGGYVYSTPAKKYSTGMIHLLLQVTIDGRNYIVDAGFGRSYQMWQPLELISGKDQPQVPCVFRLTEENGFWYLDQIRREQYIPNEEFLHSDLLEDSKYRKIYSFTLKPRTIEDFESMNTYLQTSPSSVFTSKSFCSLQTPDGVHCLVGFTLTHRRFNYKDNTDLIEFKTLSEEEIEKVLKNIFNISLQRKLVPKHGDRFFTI

[6] = target: T1, Arylamine N-acetyltransferase 2; test: Inhibition of mouse recombinant NAT2 using PABA as substrate at 30 uM
Mycobacterium marinum [7] = details: 30 uM
Description: Inhibition of Mycobacterium marinum recombinant NAT using 5-aminosalicylic acid as substrate at 30 uM

[8] = target: T4, Arylamine N-acetyltransferase 2 (NAT2) (Mus musculus, UniProt P50295); test: Inhibition of mouse recombinant NAT2 using 5-aminosalicylic acid as substrate at 30 uM; details: recombinant NAT2, probe 5-aminosalicylic acid
T4 sequence (P50295 whole entry): T1 sequence (P50295 whole entry)

[9] = target: T5, Arylamine N-acetyltransferase 2 (NAT2) (Homo sapiens, UniProt P11245); test: Inhibition of human recombinant NAT2 using 5-aminosalicylic acid as substrate at 30 uM; details: recombinant NAT2, probe 5-aminosalicylic acid
T5 sequence (P11245 whole entry): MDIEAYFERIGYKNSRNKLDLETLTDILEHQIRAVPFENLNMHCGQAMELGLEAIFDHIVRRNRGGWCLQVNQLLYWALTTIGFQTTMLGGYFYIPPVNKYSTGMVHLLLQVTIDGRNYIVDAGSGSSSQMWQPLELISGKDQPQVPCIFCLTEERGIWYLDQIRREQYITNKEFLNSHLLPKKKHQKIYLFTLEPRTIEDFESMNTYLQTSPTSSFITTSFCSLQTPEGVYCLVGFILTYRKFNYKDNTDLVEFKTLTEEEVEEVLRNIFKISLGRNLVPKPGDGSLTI

[10] = target: T2, Arylamine N-acetyltransferase; test: Inhibition of Pseudomonas aeruginosa recombinant NAT using 5-aminosalicylic acid as substrate at 30 uM; details: read-out: INH
ZR75 = test: Inhibition of NAT in human ZR75 cell lysate assessed as acetylation of aryl amine using PABA as substrate at 30 uM; assay type: cell-free

Compound: CN1C(=O)/C(=C/c2ccc(-c3ccccc3)cc2)SC1=S
- pIC50 [1]: 5.26

Compound: Cc1ccccc1/C=C1\SC(=S)NC1=O
- inhibition at 30 µM [2]: < 40%

Compound: Cc1cccc(/C=C2\SC(=S)NC2=O)c1
- inhibition (Mycobacterium marinum [3]): < 40%
- inhibition at 30 µM [2]: < 40%

Compound: O=C1NC(=S)S/C1=C\c1ccccc1O
- Activity [4]: < 80%
- inhibition (Mycobacterium marinum [3]): < 40%
- inhibition at 30 µM [2]: < 40%

Compound: Cc1ccc(/C=C2\SC(=S)N(C)C2=O)cc1
- pIC50 [1]: < 4.52

Compound: CN1C(=O)/C(=C/c2ccc(O)cc2)SC1=S
- pIC50 [1]: 4.85

Compound: C/C(=C1/SC(=S)NC1=O)c1ccccc1
- pIC50 [1]: 4.60

Compound: CCCCCCC/C=C1\SC(=S)NC1=O
- pIC50 [1]: 5.17

Compound: COc1ccc(/C=C2\SC(=S)N(C)C2=O)cc1
- pIC50 [1]: 6.00

Compound: O=C1NC(=S)S/C1=C\c1ccccc1-c1ccccc1
- pIC50 [1]: 4.78

Compound: CN1C(=O)/C(=C/c2ccc3ccccc3c2)SC1=S
- pIC50 [1]: 5.33

Compound: CCCCC/C=C1\SC(=S)NC1=O
- pIC50 [1]: 5.89

Compound: CN1C(=O)/C(=C/Cc2ccccc2)SC1=S
- pIC50 [1]: < 4.52

Compound: NN1C(=O)/C(=C/c2ccc(Cl)cc2)SC1=S
- pIC50 [1]: 5.24

Compound: Cc1ccc(/C=C2\SC(=S)NC2=O)cc1
- pIC50 [5]: < 4.52
- inhibition at 30 µM [2]: < 40%

Compound: COc1ccccc1/C=C1\SC(=S)N(C)C1=O
- pIC50 [1]: < 4.52

Compound: NN1C(=O)/C(=C/c2cc(I)c(O)c(I)c2)SC1=S
- Activity [4]: < 80%

Compound: NN1C(=O)/C(=C/c2ccc(O)cc2)SC1=S
- pIC50 [1]: 5.00

Compound: Cc1cccc(/C=C2\SC(=S)N(C)C2=O)c1
- pIC50 [1]: < 4.52

Compound: COc1cccc(/C=C2\SC(=S)N(C)C2=O)c1
- pIC50 [1]: 4.87

Compound: CCC/C=C1\SC(=S)NC1=O
- pIC50 [1]: 5.11

Compound: O=C1NC(=S)S/C1=C\c1ccc(F)cc1
- inhibition (Mycobacterium marinum [3]): < 40%
- pIC50 [5]: 4.89
- inhibition at 30 µM [2]: < 40%

Compound: O=C1NC(=S)S/C1=C\c1ccc(Cl)c(Cl)c1
- inhibition (Mycobacterium marinum [3]): < 40%
- inhibition at 30 µM [2]: < 40%

Compound: O=C1NC(=S)S/C1=C\c1ccc(Br)cc1
- pIC50 [1]: < 4.52

Compound: O=C1NC(=S)S/C1=C\c1ccc2ccccc2c1
- pIC50 [1]: 4.57

Compound: O=C1NC(=S)S/C1=C\c1cccc2ccccc12
- pIC50 [1]: < 4.52

Compound: C/C(=C1/SC(=S)N(C)C1=O)c1ccccc1
- pIC50 [1]: < 4.52

Compound: CN1C(=O)/C(=C/c2cccc3ccccc23)SC1=S
- pIC50 [1]: < 4.52

Compound: O=C1NC(=S)S/C1=C\Cc1ccccc1
- pIC50 [1]: 4.62

Compound: COc1ccccc1/C=C1\SC(=S)NC1=O
- inhibition (Mycobacterium marinum [3]): < 40%
- pIC50 [5]: 4.75
- inhibition at 30 µM [2]: < 40%

Compound: CCCCCCCCC/C=C1\SC(=S)NC1=O
- pIC50 [1]: 4.99

Compound: Cc1ccccc1/C=C1\SC(=S)N(C)C1=O
- pIC50 [1]: 5.36

Compound: O=C1NC(=S)S/C1=C\c1ccccc1F
- pIC50 [1]: < 4.52

Compound: O=C1NC(=O)/C(=C/c2ccc3ccccc3c2)S1
- pIC50 [1]: < 4.52

Compound: O=C1NC(=S)S/C1=C\c1ccc(-c2ccccc2)cc1
- inhibition (Mycobacterium marinum [3]): < 40%
- inhibition at 30 µM [2]: < 40%

Compound: O=C1NC(=S)S/C1=C\c1ccc(O)cc1
- inhibition (Mycobacterium marinum [3]): < 40%
- pIC50 [5]: 4.77
- inhibition at 30 µM [2]: < 40%

Compound: COc1ccc(/C=C2\SC(=S)NC2=O)cc1
- inhibition (Mycobacterium marinum [3]): < 40%
- pIC50 [5]: < 4.52
- inhibition at 30 µM [2]: < 40%

Compound: O=C1NC(=S)S/C1=C\c1cccc(F)c1
- pIC50 [1]: 5.17

Compound: O=C1NC(=S)S/C1=C\c1ccc(Cl)cc1
- inhibition (Mycobacterium marinum [3]): < 40%
- pIC50 [5]: 5.33
- inhibition at 30 µM [2]: < 40%

Compound: CN1C(=O)/C(=C/c2ccccc2)SC1=S
- pIC50 [1]: < 4.52

Compound: CN1C(=O)/C(=C/c2ccccc2-c2ccccc2)SC1=S
- pIC50 [1]: 5.00

Compound: CN1C(=O)/C(=C/c2ccc(Cl)cc2)SC1=S
- pIC50 [1]: 5.03

Compound: COc1cccc(/C=C2\SC(=S)NC2=O)c1
- inhibition (Mycobacterium marinum [3]): < 40%
- pIC50 [5]: < 4.52
- inhibition at 30 µM [2]: < 40%

Compound: O=C1NC(=S)S/C1=C\c1cc(I)c(O)c(I)c1
- Activity [6]: Active
- inhibition (Mycobacterium marinum [7]): 40%
- inhibition at 30 µM [8]: 104%
- Activity [4]: > 80%
- inhibition (Mycobacterium marinum [3]): < 40%
- inhibition at 30 µM [9]: 46%
- inhibition at 30 µM [2]: < 40%
- inhibition at 30 µM [10]: 52%
- Activity (ZR75): Active

Compound: CN1C(=O)/C(=C/c2ccccc2O)SC1=S
- pIC50 [1]: 4.70

Compound: O=C1NC(=S)S/C1=C\c1cccc(O)c1
- Activity [4]: < 80%
- inhibition (Mycobacterium marinum [3]): < 40%
- inhibition at 30 µM [2]: < 40%

Compound: NN1C(=O)/C(=C/c2ccccc2-c2ccccc2)SC1=S
- Activity [4]: < 80%
- pIC50 [1]: 6.52

Compound: CN1C(=O)/C(=C/c2ccc(F)cc2)SC1=S
- pIC50 [1]: 4.68

Compound: CN1C(=O)/C(=C/c2cccc(F)c2)SC1=S
- pIC50 [1]: 5.14

Compound: NN1C(=O)/C(=C/c2ccccc2O)SC1=S
- Activity [4]: < 80%
- pIC50 [1]: 5.29

Compound: CN1C(=O)/C(=C/c2ccccc2F)SC1=S
- pIC50 [1]: 4.93
